Laboratory results: patent publication US20110224231A1, “Novel Lactams as Beta Secretase Inhibitors” (Pfizer Inc., priority 2008, published 2011)
Where a name gives a salt, the structure may show the parent alone. Read-outs that look alike come from different tables or passages of the source.

Target: T1, soluble human BACE (Homo sapiens, UniProt P56817)
T1 construct: cells secreting human recombinant soluble BACE; made in house; conditioned medium
Assay: BACE activity Cell Free Assay (ELISA of cleaved synthetic APP substrate)
Format: biochemical

[1] = Table 4, cell free, soluble human BACE, pH 4.5, 3 μM substrate, read-out: BACE Activity (Cell Free Assay IC50)

T1 sequence (P56817 46-457 limits assumed): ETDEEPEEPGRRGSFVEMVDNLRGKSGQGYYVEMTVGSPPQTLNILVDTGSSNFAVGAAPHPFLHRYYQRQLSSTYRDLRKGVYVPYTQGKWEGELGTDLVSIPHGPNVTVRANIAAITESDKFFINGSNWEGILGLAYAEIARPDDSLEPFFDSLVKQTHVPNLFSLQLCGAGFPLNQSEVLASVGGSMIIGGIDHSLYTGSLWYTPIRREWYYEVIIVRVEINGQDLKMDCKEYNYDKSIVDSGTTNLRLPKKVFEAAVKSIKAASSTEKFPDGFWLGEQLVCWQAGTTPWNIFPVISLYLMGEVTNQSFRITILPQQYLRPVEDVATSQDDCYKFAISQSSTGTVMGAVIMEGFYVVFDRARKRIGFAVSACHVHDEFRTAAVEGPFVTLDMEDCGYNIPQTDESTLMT

Row | Compound | IC50 [µM] | IC50 [1] [µM]
1 | CC1CC2(CCC(=O)N2c2cccc(F)c2)CCN1Cc1c[nH]c2cc(F)ccc12 (racemic) [Example 74, Racemic (5R,7S),(5S,7R)-8-[(6-fluoro-1H-indol-3-yl)methyl]-1-(3-fluorophenyl)-7-methyl-1,8-diazaspiro[4.5]decan-2-one] | 100 to 300 | 
2 | COC(=O)Nc1ccc(CN2CCC3(CCC(=O)N3c3cccc(F)c3)CC2C)cc1 (racemic) [Example 75, Racemic methyl (4-{[(5R,7S),(5S,7R)-1-(3-fluorophenyl)-7-methyl-2-oxo-1,8-diazaspiro[4.5]dec-8-yl]methyl}phenyl)carbamate] | 100 to 300 | 
3 | CC1CC2(CCC(=O)N2c2cccc(F)c2)CCN1Cc1c[nH]c2ccc(C#N)cc12 (racemic) [Example 76, Racemic 3-{[(5R,7S),(5S,7R)-1-(3-fluorophenyl)-7-methyl-2-oxo-1,8-diazaspiro[4.5]dec-8-yl]methyl}-1H-indole-5-carbonitrile] | 100 to 300 | 
4 | CC1CC2(CCC(=O)N2c2cccc(F)c2)CCN1Cc1ccnn1CC(F)(F)F (racemic) [Example 77, Racemic (5R,7S),(5S,7R)-1-(3-fluorophenyl)-7-methyl-8-{[1-(2,2,2-trifluoroethyl)-1H-pyrazol-5-yl]methyl}-1,8-diazaspiro[4.5]decan-2-one] | 100 to 300 | 
5 | CC1CC2(CCC(=O)N2c2cccc(F)c2)CCN1Cc1n[nH]c2ccc(Cl)cc12 (racemic) [Example 78, Racemic (5R,7S),(5S,7R)-8-[(5-chloro-1H-indazol-3-yl)methyl]-1-(3-fluorophenyl)-7-methyl-1,8-diazaspiro[4.5]decan-2-one] | 100 to 300 | 
6 | CC1CC2(CCC(=O)N2c2cccc(F)c2)CCN1Cc1cccc(-n2cccn2)c1 (racemic) [Example 79, Racemic (5R,7S),(5S,7R)-1-(3-fluorophenyl)-7-methyl-8-[3-(1H-pyrazol-1-yl)benzyl]-1,8-diazaspiro[4.5]decan-2-one] | 100 to 300 | 
7 | CC1CC2(C=CC(=O)N2c2cccc(F)c2)CCN1Cc1ccc(OC(F)F)c(OC2CC2)c1 (racemic) [Example 80, Racemic (5R,7S),(5S,7R)-8-[3-(cyclopropyloxy)-4-(difluoromethoxy)benzyl]-1-(3-fluorophenyl)-7-methyl-1,8-diazaspiro[4.5]dec-3-en-2-one] | 100 to 300 | 
8 | CC1CC2(CCC(=O)N2c2cccc(F)c2)CCN1Cc1nc(-c2cccc(Cl)c2)cs1 (racemic) [Example 81, Racemic (5R,7S),(5S,7R)-8-{[4-(3-chlorophenyl)-1,3-thiazol-2-yl]methyl}-1-(3-fluorophenyl)-7-methyl-1,8-diazaspiro[4.5]decan-2-one] | 100 to 300 | 
9 | COC1(OC)CC(c2cccc(CN3CCC4(C=CC(=O)N4c4cccc(F)c4)CC3C)c2)C1 (racemic) [Example 82, Racemic (5R,7S),(5S,7R)-8-[3-(3,3-dimethoxycyclobutyl)benzyl]-1-(3-fluorophenyl)-7-methyl-1,8-diazaspiro[4.5]dec-3-en-2-one] | 100 to 300 | 
10 | CC1CC2(C=CC(=O)N2c2cccc(F)c2)CCN1Cc1c[nH]c(-c2ccccc2)n1 (racemic) [Example 83, Racemic (5R,7S),(5S,7R)-1-(3-fluorophenyl)-7-methyl-8-[(2-phenyl-1H-imidazol-4-yl)methyl]-1,8-diazaspiro[4.5]dec-3-en-2-one] | 100 to 300 | 
11 | CC1CC2(CCC(=O)N2c2cccc(F)c2)CCN1Cc1c[nH]c2cc(C(F)(F)F)ccc12 (racemic) [Example 84, Racemic (5R,7S),(5S.7R)-1-(3-fluorophenyl)-7-methyl-8-{[6-(trifluoromethyl)-1H-indol-3-yl]methyl}-1,8-diazaspiro[4.5]decan-2-one] | 100 to 300 | 
12 | CC1CC2(C=CC(=O)N2c2cccc(F)c2)CCN1Cc1nc(-c2ccccc2Cl)cs1 (racemic) [Example 85, Racemic (5R,7S),(5S,7R)-8-{[4-(2-chlorophenyl)-1,3-thiazol-2-yl]methyl}-1-(3-fluorophenyl)-7-methyl-1,8-diazaspiro[4.5]dec-3-en-2-one] | 100 to 300 | 
13 | CC1CC2(CCC(=O)N2c2cccc(F)c2)CCN1Cc1cccc(OCc2nc(C3CC3)no2)c1 (racemic) [Example 86, Racemic (5R,7S),(5S,7R)-8-{3-[(3-cyclopropyl-1,2,4-oxadiazol-5-yl)methoxy]benzyl}-1-(3-fluorophenyl)-7-methyl-1,8-diazaspiro[4.5]decan-2-one] | 100 to 300 | 
14 | CC(C)Oc1cccc(CN2CC[C@]3(CC(F)C(=O)N3c3cccc(F)c3)C[C@@H]2C)c1 (mixture of isomers) [Example 90, Racemic (5R,7S)(5S,7R)-3-fluoro-1-(3-fluorophenyl)-8-(3-isopropoxybenzyl)-7˜methyl˜1,8˜diazaspiro[4.5]decan˜2˜one, formate salt] | 10 to 100 | 
15 | CC(C)Oc1cccc(CN2CC[C@@]3(C[C@@H]2C)CC(F)(F)C(=O)N3c2cccc(F)c2)c1 (racemic) [Example 91, Racemic (5R,7S)(5S,7R)˜3,3˜difluoro˜1˜(3˜fluorophenyl)˜8˜(3˜isopropoxybenzyl)˜7˜methyl˜1,8˜diazaspiro[4.5]decan˜2˜one, formate salt] | 10 to 100 | 
16 | CC(C)Oc1cccc(CN2CC[C@]3(CC(O)C(=O)N3c3cccc(F)c3)C[C@@H]2C)c1 (mixture of isomers) [Example 92, Racemic (3R/S,5R,7S)(3R/S,5S,7R)˜1˜(3˜fluorophenyl)˜3˜hydroxy˜8˜(3˜isopropoxybenzyl)-7-methyl-1,8-diazaspiro[4.5]decan-2-one, hydrochloride salt] | 10 to 100 | 

Row | Compound | IC50 [µM] | IC50 [1] [µM]
17 | CC(C)Oc1cccc(CN2CC[C@]3(C=CC(=O)N3c3ccccn3)C[C@@H]2C)c1 [#101] | 10 to 100 | 
18 | CC(C)Oc1cccc(CN2CC[C@]3(C=CC(=O)N3c3ccncc3)C[C@@H]2C)c1 [#102] | 100 to 300 | 
19 | CC(C)Oc1cccc(CN2CC[C@]3(C=CC(=O)N3c3ccc(Cl)cn3)C[C@@H]2C)c1 [#104] |  | 10 to 100
20 | Cc1ccc(N2C(=O)C=C[C@]23CCN(Cc2cccc(OC(C)C)c2)[C@@H](C)C3)nc1 [#105] |  | 10 to 100
21 | Cc1cccc(N2C(=O)C=C[C@]23CCN(Cc2cccc(OC(C)C)c2)[C@@H](C)C3)n1 [#107] | 1 to 10 | 
22 | Cc1ccnc(N2C(=O)C=C[C@]23CCN(Cc2cccc(OC(C)C)c2)[C@@H](C)C3)c1 [#108] | 1 to 10 | 
23 | Cc1ccc(N2C(=O)C=C[C@]23CCN(Cc2cccc(OC(C)C)c2)[C@@H](C)C3)cn1 [#109] | 10 to 100 | 
24 | Cc1cc(N2C(=O)C=C[C@]23CCN(Cc2cccc(OC(C)C)c2)[C@@H](C)C3)ccn1 [#110] | 10 to 100 | 
25 | CC(C)Oc1cccc(CN2CC[C@]3(C=CC(=O)N3c3cccnc3)C[C@@H]2C)c1 [#111] | 10 to 100 | 
26 | COc1cc(F)cc(N2C(=O)C=C[C@]23CCN(Cc2cccc(OC(C)C)c2)[C@@H](C)C3)c1 [#112] | 1 to 10 | 
27 | CC(C)Oc1cccc(CN2CC[C@]3(C=CC(=O)N3c3cnn(C)c3)C[C@@H]2C)c1 [#113] | 10 to 100 | 
28 | Cc1cncc(N2C(=O)C=C[C@]23CCN(Cc2cccc(OC(C)C)c2)[C@@H](C)C3)c1 [#114] | 1 to 10 | 
29 | Cc1cccnc1N1C(=O)C=C[C@]12CCN(Cc1cccc(OC(C)C)c1)[C@@H](C)C2 [#115] | 10 to 100 | 
30 | CC(C)Oc1cccc(CN2CC[C@]3(C=CC(=O)N3c3cncc(F)c3)C[C@@H]2C)c1 [#116] | 1 to 10 | 
31 | CC(C)Oc1cccc(CN2CC[C@]3(C=CC(=O)N3c3cncc(Cl)c3)C[C@@H]2C)c1 [#117] | 1 to 10 | 
32 | CC(C)Oc1cccc(CN2CC[C@]3(C=CC(=O)N3c3cncc(C(F)(F)F)c3)C[C@@H]2C)c1 [#118] | 10 to 100 | 
